Test results published in the supplement of paper PMC10307832.

Experiments:
Experiment in all cases: relative viability (nuclei count vs DMSO), 5 days (fraction); higher = more cells survive
SGI-1776 + Decitabine = compound: CN1CCC(CNc2ccc3ncc(-c4cccc(OC(F)(F)F)c4)n3n2)CC1 [SGI-1776] + Nc1ncn([C@H]2C[C@H](O)[C@@H](CO)O2)c(=O)n1 [Decitabine] (partner 2 µM)
Outline: (§1)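 A single step with final 0.05% Triton X-100, 1% formaldehyde and 1 ug/ml Hoechst fixed the cells and stained nuclei 5 days after treatment. Lung cancer cell lines in 1536-well plates had been treated by pin tool the day after seeding with one drug alone or a fixed anchor-drug dose plus five library-drug doses (not always all listed) in √10 steps, and nuclei were counted on 4× images. Relative viability is the ratio of nuclei in treated wells to nuclei in vehicle wells, taken as the median of duplicate plates.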

[1] = compound: C1COCCN1C2=NC(=NC3=C2OC4=C3C=CC=N4)C5=CC(=CC=C5)NC(=O)C6=CN=C(C=C6)N + CC(C)C[C@H](NC(=O)[C@H](Cc1ccccc1)NC(=O)c1cnccn1)B(O)O [Bortezomib] (partner 0.002 µM)
Outline: as §1

Entinostat + Luminespib = compound: Nc1ccccc1NC(=O)c1ccc(CNC(=O)OCc2cccnc2)cc1 [Entinostat] + CCNC(=O)c1noc(-c2cc(C(C)C)c(O)cc2O)c1-c1ccc(CN2CCOCC2)cc1 [Luminespib] (partner 0.01 µM)
Outline: as §1

[2] = compound: C1COCCN1C2=NC(=NC3=C2OC4=C3C=CC=N4)C5=CC(=CC=C5)NC(=O)C6=CN=C(C=C6)N + C[C@@H](Oc1cc(-c2cnn(C3CCNCC3)c2)cnc1N)c1c(Cl)ccc(F)c1Cl [Crizotinib] (partner 1 µM)
Outline: as §1

| Cell Line | relative viability (SGI-1776 + Decitabine; first compound 0.08 µM) | relative viability (SGI-1776 + Decitabine; first compound 0.8 µM) | relative viability (SGI-1776 + Decitabine; first compound 2.53 µM) | relative viability (SGI-1776 + Decitabine; first compound 8 µM) | relative viability ([1]; first compound 0.02 µM) | relative viability ([1]; first compound 0.06325 µM) | relative viability ([1]; first compound 0.2 µM) | relative viability ([1]; first compound 0.6325 µM) | relative viability ([1]; first compound 2 µM) | relative viability (Entinostat + Luminespib; first compound 0.02 µM) | relative viability (Entinostat + Luminespib; first compound 0.06325 µM) | relative viability (Entinostat + Luminespib; first compound 0.2 µM) | relative viability (Entinostat + Luminespib; first compound 0.6325 µM) | relative viability (Entinostat + Luminespib; first compound 2 µM) | relative viability ([2]; first compound 0.02 µM) | relative viability ([2]; first compound 0.06325 µM) | relative viability ([2]; first compound 0.2 µM) | relative viability ([2]; first compound 0.6325 µM) | relative viability ([2]; first compound 2 µM) |
| --- | --- | --- | --- | --- | --- | --- | --- | --- | --- | --- | --- | --- | --- | --- | --- | --- | --- | --- | --- |
| NCI-H441 | 0.26 | 0.26 | 0.236 | 0.22 | 0.342 | 0.638 | 0.565 | 0.648 | 0.274 | 0.401 | 0.34 | 0.29 | 0.245 | 0.176 | 0.71 | 0.679 | 0.688 | 0.923 | 0.415 |
| NCI-H1915 | 0.271 | 0.258 | 0.268 | 0.221 | 1.07 | 1.08 | 1.03 | 1.02 | 0.423 | 0.737 | 0.722 | 0.821 | 0.567 | 0.373 | 0.887 | 1 | 0.983 | 0.907 | 0.494 |
| NCI-H1299 | – | – | – | – | 1.06 | 1.05 | 1.02 | 1.03 | 0.798 | – | – | – | – | – | 0.942 | 0.95 | 0.937 | 0.958 | 0.669 |
| HCC-827 | 0.32 | 0.391 | 0.411 | 0.295 | 1.07 | 1.07 | 1.17 | 1.15 | 1.08 | 0.505 | 0.309 | 0.401 | 0.202 | 0.197 | 0.905 | 0.97 | 0.91 | 0.985 | 0.93 |
| EMC-BAC-2 | 0.964 | 0.994 | 1.08 | 0.915 | 1.1 | 1.14 | 1.06 | 1 | 0.784 | 1.15 | 1.15 | 1.02 | 0.768 | 0.529 | 0.8 | 0.792 | 0.76 | 0.805 | 0.598 |
| NCI-H596 | 1.02 | 1.05 | 1.15 | 0.997 | 0.9 | 1.21 | 0.963 | 1 | 0.684 | 0.836 | 0.935 | 0.992 | 0.905 | 0.597 | 1.1 | 0.983 | 0.99 | 0.942 | 0.746 |
| NCI-H1792 | 0.651 | 0.508 | 0.658 | 0.527 | 1.2 | 0.905 | 0.994 | 0.86 | 0.374 | 0.5 | 0.519 | 0.362 | 0.392 | 0.469 | 1.2 | 0.946 | 1.01 | 0.767 | 0.382 |
| NCI-H2009 | 0.388 | 0.374 | 0.36 | 0.342 | 0.977 | 1.11 | 0.969 | 0.977 | 0.727 | 1.05 | 0.967 | 0.974 | 0.771 | 0.762 | 0.984 | 1.11 | 0.927 | 1.07 | 0.72 |
| NCI-H2347 | 0.631 | 0.673 | 0.639 | 0.577 | 1.2 | 0.922 | 1.01 | 0.784 | 0.73 | 0.337 | 0.378 | 0.348 | 0.193 | 0.081 | 0.603 | 0.678 | 0.744 | 0.759 | 0.649 |
| SW 900 | 0.368 | 0.412 | 0.49 | 0.456 | – | – | – | – | – | 0.185 | 0.157 | 0.222 | 0.163 | 0.202 | – | – | – | – | – |
| NCI-H1563 | – | – | – | – | 0.883 | 0.81 | 0.84 | 0.665 | 0.589 | 0.515 | 0.503 | 0.478 | 0.483 | 0.47 | 0.778 | 0.833 | 0.729 | 0.762 | 0.728 |
| SK-MES-1 | 0.365 | 0.372 | 0.367 | 0.303 | – | – | – | – | – | 0.798 | 1.03 | 0.891 | 0.882 | 0.353 | 1.09 | 1.11 | 0.975 | 0.884 | 0.7 |
| NCI-H1944 | 0.427 | 0.439 | 0.468 | 0.396 | – | – | – | – | – | 0.73 | 0.625 | 0.397 | 0.329 | 0.183 | 1.23 | 1.34 | 1.09 | 1.25 | 0.887 |
| LK-2 | 0.323 | 0.356 | 0.3 | 0.286 | – | – | – | – | – | 0.18 | 0.192 | 0.178 | 0.188 | 0.178 | 0.21 | 0.247 | 0.203 | 0.279 | 0.258 |
| Calu-6 | – | – | – | – | 1.1 | 1.18 | 0.919 | 0.957 | 0.806 | – | – | – | – | – | 1.1 | 0.876 | 0.758 | 0.822 | 0.454 |
| NCI-H1395 | 0.721 | 0.708 | 0.58 | 0.674 | – | – | – | – | – | 0.711 | 0.663 | 0.634 | 0.659 | 0.6 | – | – | – | – | – |
| EBC-1 | – | – | – | – | 0.541 | 0.521 | 0.431 | 0.455 | 0.417 | – | – | – | – | – | 0.209 | 0.196 | 0.197 | 0.168 | 0.172 |
| NCI-H2342 | 0.776 | 0.707 | 0.658 | 0.712 | – | – | – | – | – | 0.69 | 0.729 | 0.744 | 0.589 | 0.553 | – | – | – | – | – |
| NCI-H1703 | – | – | – | – | 0.229 | 0.278 | 0.249 | 0.267 | 0.236 | – | – | – | – | – | 0.357 | 0.731 | 0.506 | 0.401 | 0.416 |
| IA-LM | – | – | – | – | – | 0.78 | 0.537 | 0.645 | 0.39 | – | – | – | – | – | 1.05 | 0.733 | 0.619 | 0.58 | 0.369 |
| NCI-H1648 | 0.432 | 0.414 | 0.461 | 0.497 | – | – | – | – | – | – | – | – | – | – | – | – | – | – | – |
| NCI-H522 | 0.632 | 0.595 | 0.728 | 0.562 | – | – | – | – | – | 1.21 | 1.33 | 1.38 | 1.1 | 0.649 | – | – | – | – | – |
| A549 | 0.303 | 0.238 | 0.285 | 0.097 | – | – | – | – | – | – | – | – | – | – | 1 | 0.903 | 0.66 | 0.764 | 0.302 |
| HCC-78 | 0.714 | 0.739 | 0.636 | 0.657 | 0.394 | 0.61 | 0.555 | 0.444 | 0.497 | – | – | – | – | – | 0.352 | 0.327 | 0.329 | 0.282 | 0.261 |
